From US20090029992A1, “SUBSTITUTED PYRAZOLE COMPOUNDS” (priority 2007, published 2009)

How the values were obtained:
Format in all cases: biochemical
recombinant Aurora A = target: T1, recombinant Aurora A (Homo sapiens, UniProt O14965); test: Aurora A (Aurora 2) inhibition assay, Z'-Lyte kinase assay; conditions: ATP 10 μM, 1 h
T1 construct: purchased Upstate, Lake Placid, N.Y
T1 sequence (O14965 1-403): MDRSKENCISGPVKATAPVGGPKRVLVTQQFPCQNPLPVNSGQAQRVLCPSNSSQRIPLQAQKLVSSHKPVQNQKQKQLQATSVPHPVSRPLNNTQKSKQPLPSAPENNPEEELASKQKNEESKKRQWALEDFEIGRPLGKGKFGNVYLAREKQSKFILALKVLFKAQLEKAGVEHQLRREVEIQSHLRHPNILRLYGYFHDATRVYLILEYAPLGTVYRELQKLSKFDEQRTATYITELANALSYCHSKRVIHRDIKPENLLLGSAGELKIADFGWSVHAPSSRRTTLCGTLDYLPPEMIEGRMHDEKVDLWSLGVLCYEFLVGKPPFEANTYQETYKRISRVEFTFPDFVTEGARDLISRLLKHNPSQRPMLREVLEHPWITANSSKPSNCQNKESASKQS
Method in brief: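 Z'-Lyte FRET assay: Aurora A (200-500 ng/mL final), Ser/Thr 1 peptide (2 μM) and ATP (10 μM) in 50 mM HEPES pH 7.5, 10 mM MgCl2, 5 mM EGTA, 0.05% Brij-35, 2 mM DTT, 1 h at room temperature. Coumarin/fluorescein emission ratio converted to percent phosphorylation; dose-response curves plotted.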

[1] = target: T2, N-terminal His6-tagged recombinant human KDR, residues 790-end (Homo sapiens, UniProt P35968); test: KDR kinase inhibition assay (33P-ATP filter assay)
T2 construct: recombinant human KDR, residues 790-end; His6 (N); purchased Upstate USA Inc, 706 Forest Street, Charlottesville, Va
Method in brief: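 Radiometric filter assay: reaction started with Mg acetate (10 mM)/[γ-33P]ATP mix, run 40 min at room temperature in 8 mM MOPS pH 7.0 with 0.2 mM EDTA, MBP substrate (0.33 mg/mL) and recombinant KDR 790-end (5-10 mU). Phosphate incorporation by scintillation counting of P30 filtermats, compared with uninhibited reactions.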

[2] = target: T3, N-terminal GST-tagged recombinant human Flt3, residues 564-end (Homo sapiens, UniProt P36888); test: Flt3 kinase inhibition assay (33P-ATP filter assay); conditions: 40 minutes at room temperature
T3 construct: recombinant human Flt3, residues 564-end; GST (N); purchased Upstate USA Inc, 706 Forest Street, Charlottesville, Va
T3 sequence (P36888 564-993 limits assumed): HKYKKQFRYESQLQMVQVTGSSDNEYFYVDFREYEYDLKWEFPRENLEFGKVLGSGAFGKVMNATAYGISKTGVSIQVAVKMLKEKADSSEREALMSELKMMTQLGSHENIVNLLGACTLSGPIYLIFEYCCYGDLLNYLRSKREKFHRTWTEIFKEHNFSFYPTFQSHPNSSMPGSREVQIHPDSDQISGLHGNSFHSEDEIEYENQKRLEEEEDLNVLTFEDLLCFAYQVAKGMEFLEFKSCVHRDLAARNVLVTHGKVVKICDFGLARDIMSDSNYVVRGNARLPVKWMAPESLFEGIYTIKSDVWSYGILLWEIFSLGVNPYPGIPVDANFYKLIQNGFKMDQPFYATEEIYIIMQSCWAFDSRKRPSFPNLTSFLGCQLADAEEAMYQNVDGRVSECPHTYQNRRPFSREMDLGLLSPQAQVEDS
Method in brief: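 Serial compound dilutions incubated 40 min at room temperature with 5-10 mU Flt3 kinase, 50 μM peptide substrate and [γ-33P]ATP/10 mM magnesium acetate, pH 7.0. Phosphoric acid stop, filter capture and scintillation counting; activity compared with uninhibited reactions.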

[3] = group with IC50 greater than 100 nM

T2 sequence (P35968 790-1356 limits assumed): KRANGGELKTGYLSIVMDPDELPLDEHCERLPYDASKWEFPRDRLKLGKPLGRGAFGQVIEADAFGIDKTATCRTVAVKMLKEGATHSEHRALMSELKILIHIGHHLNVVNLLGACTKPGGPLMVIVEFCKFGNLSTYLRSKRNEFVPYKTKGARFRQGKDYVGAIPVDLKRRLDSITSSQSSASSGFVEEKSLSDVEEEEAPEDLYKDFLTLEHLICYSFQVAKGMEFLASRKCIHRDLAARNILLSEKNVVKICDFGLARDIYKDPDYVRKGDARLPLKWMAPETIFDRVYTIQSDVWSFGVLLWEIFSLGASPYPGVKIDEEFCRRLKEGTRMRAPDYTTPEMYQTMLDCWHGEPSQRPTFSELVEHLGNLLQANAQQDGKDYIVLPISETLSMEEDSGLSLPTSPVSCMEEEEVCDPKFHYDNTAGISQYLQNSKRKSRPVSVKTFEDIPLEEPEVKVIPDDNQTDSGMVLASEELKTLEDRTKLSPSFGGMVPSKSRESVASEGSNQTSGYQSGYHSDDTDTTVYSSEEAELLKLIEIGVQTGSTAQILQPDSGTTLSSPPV

Row | SMILES | IC50 (recombinant Aurora A) [nM] | IC50 ([1]; 40 minutes at room temperature) [nM] | IC50 [2] [nM] | IC50 (recombinant Aurora A; [3]) [nM] | IC50 [1, 3] [nM]
1 | Cc1cc(Nc2cc(NC3CCOCC3)nc(-c3cccc(F)c3)n2)n[nH]1 [Compound 20, 2-(3-fluorophenyl)-N^4-(5-methyl-1H-pyrazol-3-yl)-N^6-(tetrahydro-2H-pyran-4-yl)pyrimidine-4,6-diamine] | ≤ 100 | ≤ 100 | ≤ 100 | – | –
2 | Cc1cc(Nc2cc(NC3CCOCC3)nc(-c3ccccc3)n2)n[nH]1 [Compound 12, N^4-(tetrahydro-2H-pyran-4-yl)-N^6-(5-methyl-1H-pyrazol-3-yl)-2-phenylpyrimidine-4,6-diamine] | ≤ 100 | ≤ 100 | ≤ 100 | – | –
3 | Cc1cc(Nc2cc(N3CCN(C)CC3)nc(-c3cccc(C#N)c3)n2)n[nH]1 [Example 163, 3-(4-(5-methyl-1H-pyrazol-3-ylamino)-6-(4-methylpiperazin-1-yl)pyrimidin-2-yl)benzonitrile] | ≤ 100 | ≤ 100 | ≤ 100 | – | –
4 | CCOc1cccc(-c2nc(Nc3cc(C)[nH]n3)cc(N3CCN(C)CC3)n2)c1 [Example 190, 2-(3-ethoxyphenyl)-N-(5-methyl-1H-pyrazol-3-yl)-6-(4-methylpiperazin-1-yl)pyrimidin-4-amine] | ≤ 100 | ≤ 100 | ≤ 100 | – | –
5 | Cc1ccc(F)c(-c2nc(Nc3cc(C)[nH]n3)cc(N3CCN(C)CC3)n2)c1 [Example 193, 2-(2-fluoro-5-methylphenyl)-N-(5-methyl-1H-pyrazol-3-yl)-6-(4-methylpiperazin-1-yl)pyrimidin-4-amine] | ≤ 100 | ≤ 100 | ≤ 100 | – | –
6 | Cc1cc(Nc2cc(N3CCN(C)CC3)nc(-c3ccc(N(C)C)cc3)n2)n[nH]1 [Compound 85, 2-(4-(dimethylamino)prenyl)-N-(b-methyl-1H-pyrazol-3-yl)-6-(4-methylpiperazin-1-yl)pyrimidin-4-amine] | ≤ 100 | ≤ 100 | ≤ 100 | – | –
7 | Cc1cc(Nc2cc(NC3CCOCC3)nc(-c3ccc(F)cc3)n2)n[nH]1 [Compound 19, 2-(4-fluorophenyl)-N^4-(5-methyl-1H-pyrazol-3-yl)-N^6-(tetrahydro-2H-pyran-4-yl)pyrimidine-4,6-diamine] | – | – | ≤ 100 | ≤ 1000 | ≤ 1000

Next, values leading:

Row | IC50 (recombinant Aurora A) [nM] | IC50 ([1]; 40 minutes at room temperature) [nM] | IC50 [2] [nM] | IC50 (recombinant Aurora A; [3]) [nM] | IC50 [1, 3] [nM] | SMILES
8 | ≤ 100 | ≤ 100 | ≤ 100 | – | – | Cc1cc(Nc2cc(N3CCC(O)CC3)nc(-c3cc4ccccc4n3C)n2)n[nH]1 [Compound 3, 1-(6-(5-methyl-1H-pyrazol-3-ylamino)-2-(1-methyl-1H-indol-2-yl)pyrimidin-4-yl)piperidin-4-ol]
9 | – | – | ≤ 100 | ≤ 1000 | ≤ 1000 | Cc1cc(Nc2cc(NC3CCOCC3)nc(-c3cc4ccccc4n3C)n2)n[nH]1 [Compound 7, N^4-(tetrahydro-2H-pyran-4-yl)-2-(1-methyl-1H-indol-2-yl)-N^6-(5-methyl-1H-pyrazol-3-yl)pyrimidine-4,6-diamine]
10 | ≤ 100 | ≤ 100 | ≤ 100 | – | – | Cc1cc(Nc2cc(N3CCN(C)CC3)nc(-c3ccc4ccccc4c3)n2)n[nH]1 [Example 135, N-(5-methyl-1H-pyrazol-3-yl)-6-(4-methylpiperazin-1-yl)-2-(naphthalen-2-yl)pyrimidin-4-amine]
11 | ≤ 100 | ≤ 100 | ≤ 100 | – | – | Cc1cccc(-c2nc(Nc3cc(C)[nH]n3)cc(N3CCN(C)CC3)n2)c1 [Compound 39, N-(5-methyl-1H-pyrazol-3-yl)-6-(4-methylpiperazin-1-yl)-2-m-tolylpyrimidin-4-amine]
